The text below walks through data of US20250223259A1, “PROTEASE INHIBITORS FOR TREATING OR PREVENTING CORONAVIRUS INFECTION” (Merck Sharp & Dohme LLC, priority 2022, published 2025).

The target of the assay is SARS2 coronavirus 3CL protease (Severe acute respiratory syndrome coronavirus 2 (2019-nCoV) (SARS-CoV-2), UniProt P0DTD1). The experiment in a line: SARS2 Coronavirus 3CL Protease Assay (FRET). In kind it is biochemical. Particulars: SARS2 3CLPro FRET assay; 5 nM enzyme, 30 min pre-incubation with compound, 15 uM peptide substrate, 4 h room temperature.
Description: The enzymatic activity of SARS2 coronavirus 3CL protease was determined in a FRET (fluorescence resonance energy transfer)-based assay measuring the cleavage of a peptide substrate by recombinantly expressed and purified enzyme. Cleavage of the peptide SEQ ID NO:1 (CPC Scientific) by SARS2 3CL protease was measured in reaction buffer (50 mM Hepes pH 7.5, 0.01% Triton X-100, 0.01% BSA, 2 mM DTT). SARS2 3CL protease (5 nM final concentration) was pre-incubated with compound for 30 minutes before reaction initiation with peptide substrate (15 uM final concentration). Room temperature reactions (4 h) were quenched by addition of a high dose of inhibitor and read on an appropriate plate reader (excitation wavelength=495 nm, emission wavelength=520 nm). Data were analyzed by a standard 4 parameter fit to determine IC50 values.
With `COC(=O)N[C@H](C(=O)N1CCCC(C)C1C(=O)N[C@@H](CCC(C)(F)F)C(=O)C(=O)NC1CC1)C(C)(C)C` (single isomer, unassigned) [Example 49, Methyl ((S)-1-((2(R or S),3(R or S))-2-(((S)-1-(cyclopropylamino)-6,6-difluoro-1,2-dioxoheptan-3-yl)carbamoyl)-3-methylpiperidin-1-yl)-3,3-dimethyl-1-oxobutan-2-yl)carbamate], the IC50 was 60 nM. With `CCNC(=O)C(=O)[C@H](CCC(C)(F)F)NC(=O)[C@@H]1[C@H]2CCC[C@H]2CN1C(=O)[C@@H](NC(=O)OC)C(C)(C)C` [Example 101, methyl ((S)-1-((1S,3aR,6aS)-1-(((S)-1-(ethylamino)-6,6-difluoro-1,2-dioxoheptan-3-yl)carbamoyl)hexahydrocyclopenta[c]pyrrol-2(1H)-yl)-3,3-dimethyl-1-oxobutan-2-yl)carbamate] the figure was 22 nM. As for `CNC(=O)C(=O)[C@H](CCC(C)(F)F)NC(=O)[C@@H]1[C@H]2CC(C)(C)O[C@H]2CN1C(=O)[C@@H](NC(=O)OC)C(C)(C)C` [Example 86, methyl ((S)-1-((3aR,4S,6aR)-4-(((S)-6,6-difluoro-1-(methylamino)-1,2-dioxoheptan-3-yl)carbamoyl)-2,2-dimethylhexahydro-5H-furo[2,3-c]pyrrol-5-yl)-3,3-dimethyl-1-oxobutan-2-yl)carbamate], the IC50 amounted to 20 nM.

For `COC(=O)N[C@H](C(=O)N1CC2(CCCC2)C[C@H]1C(=O)N[C@@H](CCC(C)(F)F)C(=O)C(=O)NC1CC1)C(C)(C)C` [Example 10, Methyl ((S)-1-((S)-3-(((S)-1-(cyclopropylamino)-6,6-difluoro-1,2-dioxoheptan-3-yl)carbamoyl)-2-azaspiro[4.4]nonan-2-yl)-3,3-dimethyl-1-oxobutan-2-yl)carbamate], the IC50 is 26 nM. In the case of `CNC(=O)C(=O)[C@H](CCC(C)(F)F)NC(=O)[C@@H]1CC2(CCC2(F)F)CN1C(=O)[C@@H](NC(=O)OC)C(C)(C)C` (single isomer, unassigned) [Example 103, methyl ((S)-1-((4(S or R),7S)-7-(((S)-6,6-difluoro-1-(methylamino)-1,2-dioxoheptan-3-yl)carbamoyl)-1,1-difluoro-6-azaspiro[3.4]octan-6-yl)-3,3-dimethyl-1-oxobutan-2-yl)carbamat], the IC50 turned out to be 32 nM.

Take `COC(=O)N[C@H](C(=O)N1CC2(CCCCC2)C[C@H]1C(=O)N[C@@H](CCC(C)(F)F)C(=O)C(=O)NC1CC1)C1CCOCC1` [Example 74, Methyl ((S)-2-((S)-3-(((S)-1-(cyclopropylamino)-6,6-difluoro-1,2-dioxoheptan-3-yl)carbamoyl)-2-azaspiro[4.5]decan-2-yl)-2-ox0-1-(tetrahydro-2H-pyran-4-yl)ethyl)carbamate]: the IC50 came to 69 nM. Under `COC(=O)N[C@H](C(=O)N1C[C@H](OC(F)(F)F)C(C)(C)[C@H]1C(=O)N[C@@H](CCC(C)(F)F)C(=O)C(=O)NC1CC1)C(C)(C)C` [Example 48, Methyl ((S)-1-((2S,4R)-2-(((S)-1-(cyclopropylamino)-6,6-difluoro-1,2-dioxoheptan-3-yl)carbamoyl)-3,3-dimethyl-4-(trifluoromethoxy)pyrrolidin-1-yl)-3,3-dimethyl-1-oxobutan-2-yl)carbamate] stands 45 nM; under `[2H]C([2H])([2H])NC(=O)C(=O)[C@H](CCC(C)(F)F)NC(=O)C1CC(C(F)(F)F)CCN1C(=O)[C@@H](NC(=O)OC([2H])([2H])[2H])C(C)(C)C` (single isomer, unassigned) [Example 100, methyl-d3 ((S)-1-((2(S or R),4(S or R))-2-(((S)-6,6-difluoro-1-((methyl-d3)amino)-1,2-dioxoheptan-3-yl)carbamoyl)-4-(trifluoromethyl)piperidin-1-yl)-3,3-dimethyl-1-oxobutan-2-yl)carbamate], 14 nM. With `COC(=O)N[C@H](C(=O)N1CCC(C(F)F)CC1C(=O)N[C@@H](CCC(C)(F)F)C(=O)C(=O)NC1CC1)C(C)(C)C` (single isomer, unassigned) [Example 108, methyl ((S)-1-((2(S or R),4(R or S)-2-(((S)-1-(cyclopropylamino)-6,6-difluoro-1,2-dioxoheptan-3-yl)carbamoyl)-4-(difluoromethyl)piperidin-1-yl)-3,3-dimethyl-1-oxobutan-2-yl)carbamate], the concentration for half-maximal inhibition (IC50) stood at 22 nM. Take `COC(=O)N[C@H](C(=O)N1CCC(C2CC2)C1C(=O)N[C@@H](CCC(C)(F)F)C(=O)C(=O)NC1CC1)C(C)(C)C` (single isomer, unassigned) [Example 23, Methyl ((S)-1-((2(S or R),3(R or S))-3-cyclopropyl-2-(((S)-1-(cyclopropylamino)-6,6-difluoro-1,2-dioxoheptan-3-yl)carbamoyl)pyrrolidin-1-yl)-3,3-dimethyl-1-oxobutan-2-yl)carbamate]: the half-maximal inhibitory concentration (IC50) is 10 nM. For the compound `COC(=O)N[C@H](C(=O)N1CCC(C)C1C(=O)N[C@@H](CCC(C)(F)F)C(=O)C(=O)NC1CC1)C(C)(C)C` (single isomer, unassigned) [Example 51, Methyl ((S)-1-((2(R or S),3(R or S))-2-(((S)-1-(cyclopropylamino)-6,6-difluoro-1,2-dioxoheptan-3-yl)carbamoyl)-3-methylpyrrolidin-1-yl)-3,3-dimethyl-1-oxobutan-2-yl)carbamate], the half-inhibitory concentration (IC50) was determined as 97 nM. With `COC(=O)N[C@H](C(=O)N1C[C@H]2[C@H](CCC2(F)F)[C@H]1C(=O)N[C@@H](CCC(C)(F)F)C(=O)C(=O)NC1CC1)C(C)(C)C` [Example 33, Methyl ((S)-1-((1S,3aR,6aS)-1-(((S)-1-(cyclopropylamino)-6,6-difluoro-1,2-dioxoheptan-3-yl)carbamoyl)-4,4-difluorohexahydrocyclopenta[c]pyrrol-2(1H)-yl)-3,3-dimethyl-1-oxobutan-2-yl)carbamate] the figure was 9.7 nM; with `COC(=O)N[C@H](C(=O)N1CC(C2COC2)C[C@H]1C(=O)N[C@@H](CCC(C)(F)F)C(=O)C(=O)NC1CC1)C(C)(C)C` (single isomer, unassigned) [Example 57, Methyl ((S)-1-((2S, 4(R or S))-2-(((S)-1-(cyclopropylamino)-6,6-difluoro-1,2-dioxoheptan-3-yl)carbamoyl)-4-(oxetan-3-yl)pyrrolidin-1-yl)-3,3-dimethyl-1-oxobutan-2-yl)carbamate], 305 nM. Turning to `COC(=O)N[C@H](C(=O)N1CC2(CCCCC2)C[C@H]1C(=O)N[C@@H](CCC(C)(F)F)C(=O)C(=O)NCC(C)C)C(C)(C)C` [Example 9, Methyl ((S)-1-((S)-3-(((S)-6,6-difluoro-1-(isobutylamino)-1,2-dioxoheptan-3-yl)carbamoyl)-2-azaspiro[4.5]decan-2-yl)-3,3-dimethyl-1-oxobutan-2-yl)carbamate], the IC50 is 21 nM. For the compound `COC(=O)N[C@H](C(=O)N1C[C@H]2[C@@H]([C@H]1C(=O)N[C@@H](CCC(C)(F)F)C(=O)C(=O)NC1CC1)C21CCCCC1)C(C)(C)C` [Example 69, Methyl ((S)-1-((1R,2S,5S)-2-(((S)-1-(cyclopropylamino)-6,6-difluoro-1,2-dioxoheptan-3-yl)carbamoyl)-3-azaspiro[bicyclo[3.1.0]hexane-6,1'-cyclohexan]-3-yl)-3,3-dimethyl-1-oxobutan-2-yl)carbamate], the IC50 was determined as 31 nM.

On to `CCC1CCN(C(=O)[C@@H](NC(=O)OC)C(C)(C)C)C1C(=O)N[C@@H](CCC(C)(F)F)C(=O)C(=O)NC1CC1` (single isomer, unassigned) [Example 72, Methyl ((S)-1-((2(R or S),3(R or S))-2-(((S)-1-(cyclopropylamino)-6,6-difluoro-1,2-dioxoheptan-3-yl)carbamoyl)-3-ethylpyrrolidin-1-yl)-3,3-dimethyl-1-oxobutan-2-yl)carbamate], for which the IC50 is 48 nM.

As to `CNC(=O)C(=O)[C@H](CCC(C)(F)F)NC(=O)[C@@H]1CC[C@H](C)N1C(=O)[C@@H](NC(=O)OC)C(C)(C)C` [Example 85, methyl ((S)-1-((2S,5S)-2-(((S)-6,6-difluoro-1-(methylamino)-1,2-dioxoheptan-3-yl)carbamoyl)-5-methylpyrrolidin-1-yl)-3,3-dimethyl-1-oxobutan-2-yl)carbamate], the concentration for half-maximal inhibition (IC50) was determined as 257 nM. With `COC(=O)N[C@H](C(=O)N1CC[C@@H](C)C[C@H]1C(=O)N[C@@H](CCC(C)(F)F)C(=O)C(=O)NC1CC1)C(C)(C)C` [Example 96, methyl ((S)-1-((2S,4R)-2-(((S)-1-(cyclopropylamino)-6,6-difluoro-1,2-dioxoheptan-3-yl)carbamoyl)-4-methylpiperidin-1-yl)-3,3-dimethyl-1-oxobutan-2-yl)carbamate] the figure was 15 nM; with `COC(=O)N[C@H](C(=O)N1C[C@H](OC(F)(F)F)C[C@H]1C(=O)N[C@@H](CCC(C)(F)F)C(=O)C(=O)NC1CC1)C(C)(C)C` [Example 70, Methyl ((S)-1-((2S,4R)-2-(((S)-1-(cyclopropylamino)-6,6-difluoro-1,2-dioxoheptan-3-yl)carbamoyl)-4-(trifluoromethoxy)pyrrolidin-1-yl)-3,3-dimethyl-1-oxobutan-2-yl)carbamate], 36 nM; with `COC(=O)N[C@H](C(=O)N1CC[C@@H](C(F)(F)F)C[C@H]1C(=O)N[C@@H](CCC(C)(F)F)C(=O)C(=O)NC1CC1)C(C)(C)C` [Example 61, Methyl ((S)-1-((2S,4R)-2-(((S)-1-(cyclopropylamino)-6,6-difluoro-1,2-dioxoheptan-3-yl)carbamoyl)-4-(trifluoromethyl)piperidin-1-yl)-3,3-dimethyl-1-oxobutan-2-yl)carbamate], 16 nM.

Regarding `CNC(=O)C(=O)[C@H](CCC(C)(F)F)NC(=O)[C@@H]1C[C@H](C(F)(F)F)CCN1C(=O)[C@@H](NC(=O)OC)C(C)(C)C` [Example 22, Methyl ((S)-1-((2S,4R)-2-(((S)-6,6-difluoro-1-(methylamino)-1,2-dioxoheptan-3-yl)carbamoyl)-4-(trifluoromethyl)piperidin-1-yl)-3,3-dimethyl-1-oxobutan-2-yl)carbamate], the IC50 stood at 10 nM.

Usually IC50 stands for the point on the concentration scale where inhibition reaches its midpoint.
